# Experimental data published in patent publication US10086077B2, “Activated macrophage targetable drug carrier for treatment of atherosclerosis and methods of preparing the same” (Korea University Research and Business Foundation, priority 2016, dated 2018).
# Experiments:
# ApoE−/− mice [1] = test: In vivo imaging of carotid atherosclerotic plaque, general and in-vivo fluorescence microscope; details: 14 mg/kg/week for four weeks, before vs after
# Text: In order to evaluate a possibility of reducing inflammation and a size of the atherosclerotic plaque in vivo of the drug carrier encapsulated with the lobeglitazone, the drug carrier encapsulated with the lobeglitazone was administrated in mice (ApoE−/− mice) causing the atherosclerosis at a carotid branch.
# More particularly, the ApoE −/− mice with the atherosclerosis are divided into three groups, and then in the first group, a drug carrier encapsulated with a mannose receptor-specific lobeglitazone was administrated (14 mg/kg/week), in the second group, the same quantity of lobeglitazone was orally administrated (14 mg/kg/week), and in the third group, a treating drug was not administrated. After the drug was administrated for four weeks, the same carotid branch portion was peeled and the size and the inflammation degree of the atherosclerotic plaque before and after treatment were observed and compared by a general microscope and an in-vivo fluorescence microscope.
# Particularly, the effect of treating atherosclerosis was evaluated by comparing and analyzing an atherosclerotic size and an inflammation degree before administrating the drug and after administrating the drug for four weeks by administrating a glycol chitosan-based drug carrier (attached with a fluorescent material) capable of imaging an atherosclerotic plaque selectively bound to the mannose receptor over-expressed in the macrophage to an atherosclerotic model mouse and then peeling the carotid branch portion to image the carotid branch portion by an in-vivo fluorescence microscope.
# In order to objectively quantify the inflammation degree expressed in the atherosclerotic plaque, a signal of autofluorescence or more of the atherosclerotic plaque measured in the Experimental Example 4 was extracted to quantify the range of signal expression and the degree of signal intensity.
# ApoE−/− mice [2] = test: Histopathology of carotid atherosclerotic plaque: H&E, MAC3 and CD 206 staining; assay type: in vivo; details: after four weeks (FIG. 9)
# Procedure: Further, the effect of treating atherosclerosis of the drug carrier encapsulated with the lobeglitazone was evaluated by histopathologically analyzing the size of the atherosclerotic plaque reflecting the inflammation degree of the atherosclerotic plaque, distribution of the macrophages, and expression of mannose receptors in the macrophage. The atherosclerotic plaque of the carotid extracted from the arteriosclerosis model mouse was stained by H&E staining, MAC3 staining (macrophage staining), and CD 206 staining (macrophage mannose receptor staining).
# FIG. 9 is a photograph illustrating sizes of atherosclerotic plaques by using H&E staining, MAC3 staining, and CD 206 staining in the group administered with the drug carrier according to an example embodiment, the group administered orally with lobeglitazone, and the group administered with no drug. FIG. 9 is a photograph illustrating an atherosclerotic plaque in the carotid extracted from the mouse by CD 206 staining (macrophage mannose receptor staining), MAC3 staining (macrophage staining), and H&E staining, before administrating the drug and after administrating the drug for four weeks, respectively, in a group (MMR-lobe) administrated with a glycol chitosan drug carrier encapsulated with lobeglitazone, a group (PO-Lobe) orally administrated with lobeglitazone, and a group (Control) administered with no drug, respectively.
compound,measurement,setting,value
COc1ccc(Oc2cc(N(C)CCOc3ccc(CC4SC(=O)NC4=O)cc3)ncn2)cc1 (stereo not drawn) [lobeglitazone],inflammation degree of the atherosclerosis,ApoE−/− mice [1]; images (FIGS. 5A-5C),not largely changed
same,size of the atherosclerosis,ApoE−/− mice [1]; images (FIGS. 5A-5C),not largely changed
same,fluorescence intensity expressed in the atherosclerotic plaque,ApoE−/− mice [1]; quantified (FIG. 6),no difference
same,CD 206 (macrophage mannose receptor staining),ApoE−/− mice [2]; CD 206 staining,decreased
same,size of the atherosclerotic plaque,ApoE−/− mice [2]; H&E staining,decreased
same,MAC3 (macrophage staining),ApoE−/− mice [2]; MAC3 staining,decreased
